From the OligoGym collection
After the bases stand the sugars from the 5' end (letter, count) and the backbone: PS all phosphorothioate, else s phosphorothioate and o phosphodiester by linkage. Methylation of C is not given here. e = 2'-O-(2-methoxyethyl) (MOE); k = constrained ethyl (cEt); d = 2'-deoxy (DNA); m = 2'-O-methyl

Target: HSD17B13
Details: ASO, HepaRG

Sequence	target mRNA inhibition (1 µM)	further results
CTGCTGCTAGTGCCAA (sugars kkdddddddddkekek, PS)	44%	
CTGGAACAATATGGGA (sugars k3 d1 m1 d9 k2, PS)	45%	
CTGGAACAATATGGGA (sugars k3 d9 k3 e1, PS)	36%	
CTGGAACAATATGGGA (sugars kkdddddddddkekek, PS)	33%	
CTGGAAGATTAATCAT (sugars k3 d10 k3, PS)	31%	
CTGGAGAAGAGTTTAC (sugars k3 d10 k3, PS)	38%	
CTGTAAGAGTCAGTAT (sugars k3 d10 k3, PS)	42%	
CTGTATTAAGACAGTT (sugars k3 d10 k3, PS)	41%	
CTGTCATAAAGGTGGG (sugars k3 d10 k3, PS)	59%	
CTGTGACGATGTGGCC (sugars k3 d10 k3, PS)	28%	
CTGTGGCATGGCTACA (sugars kkdddddddddkekek, PS)	33%	
CTGTGTAAATAAGTTC (sugars k3 d10 k3, PS)	38%	
CTGTGTTAGCTTTAAT (sugars kkdddddddddkekek, PS)	47%	
CTTAAACCTTCCCTGT (sugars k3 d1 m1 d8 k3, PS)	24%	
CTTAAACCTTCCCTGT (sugars k3 d9 k3 e1, PS)	34%	
CTTAAGAGAAGGTGCA (sugars k3 d10 k3, PS)	43%	
CTTAAGATACCCAGGT (sugars k3 d9 k3 e1, PS)	45%	
CTTACATATTGCATAC (sugars k3 d10 k3, PS)	35%	
CTTAGTGTAGAATTGT (sugars k3 d10 k3, PS)	56%	
CTTATTGGTAAGTATT (sugars k3 d9 k3 e1, PS)	24%	

Sequence	target mRNA inhibition (1 µM)	further results
CTTATTGGTAAGTATT (sugars k3 d10 k3, PS)	22%	
CTTCACCAACGACTCC (sugars k3 d10 k3, PS)	8%	
CTTCAGAGTTATACAG (sugars k3 d10 k3, PS)	35%	
CTTCATAGTGGACTTC (sugars k3 d1 m1 d8 k3, PS)	35%	
CTTCTATTGTATGAGG (sugars k3 d10 k3, PS)	40%	
CTTCTGTAGGTTTTGC (sugars k3 d10 k3, PS)	60%	
CTTGAACAGTCTTAAA (sugars kkdddddddddkekek, PS)	38%	
CTTGAATAGCAAGCCA (sugars k3 d10 k3, PS)	25%	
CTTGATCTCTTAGCTG (sugars k3 d9 k3 e1, PS)	36%	
CTTGATGTAGTGGGAG (sugars k3 d10 k3, PS)	83%	target mRNA inhibition (0.02 µM): 0%; target mRNA inhibition (0.078 µM): 4%; target mRNA inhibition (0.313 µM): 21%; target mRNA inhibition (1.25 µM): 62%; target mRNA inhibition (5 µM): 80%
CTTGATGTAGTGGGAG (sugars kkdddddddddkekek, PS)	20%	
CTTTTAACTACCCTCA (sugars k3 d10 k3, PS)	16%	
CTTTTAGGGAGGTAGC (sugars k3 d10 k3, PS)	62%	
CTTTTTATAGACTGGG (sugars k3 d9 k3 e1, PS)	44%	
CTTTTTATAGACTGGG (sugars k3 d10 k3, PS)	67%	
GAAAAAGGTTATCATG (sugars k3 d10 k3, PS)	31%	
GAAACCAATCCTCAGC (sugars k3 d10 k3, PS)	3%	
GAAACTTGATCTCTTA (sugars k3 d10 k3, PS)	64%	
GAAACTTGATCTCTTA (sugars kkdddddddddkekek, PS)	54%	
GAAATAACTGTTCTCC (sugars k3 d10 k3, PS)	32%	

Sequence	target mRNA inhibition (1 µM)	further results
GAACAATATGGGATGA (sugars k3 d10 k3, PS)	26%	
GAACAGTCTTAAACCT (sugars k3 d9 k3 e1, PS)	64%	
GAACAGTCTTAAACCT (sugars k3 d10 k3, PS)	64%	
GAACAGTTCAACTGAA (sugars k3 d10 k3, PS)	10%	
GAACATACATTGTTGC (sugars k3 d10 k3, PS)	58%	
GAACTGTGTTGCTTGT (sugars k3 d10 k3, PS)	77%	
GAAGACTACATTAACA (sugars k3 d10 k3, PS)	36%	
GAAGAGGCTAGGGAAA (sugars k3 d10 k3, PS)	44%	
GAAGATCGGCTGGATA (sugars k3 d10 k3, PS)	16%	
GAATAGGAGAGTCTTT (sugars k3 d10 k3, PS)	58%	
GAATCATGATTGAATT (sugars k3 d10 k3, PS)	39%	
GAATCATTAAGCTTAG (sugars k3 d10 k3, PS)	63%	
GAATGCTACTTGAACA (sugars k3 d10 k3, PS)	44%	
GAATGCTACTTGAACA (sugars kkdddddddddkekek, PS)	48%	
GAATTATTTCTTGCGA (sugars k3 d10 k3, PS)	61%	
GACACTAATTTAGTCA (sugars k3 d10 k3, PS)	11%	
GACAUGAGGTTTTGAT (sugars k3 d1 m1 d8 k3, PS)	34%	
GACCATGCTGCTACTC (sugars k3 d10 k3, PS)	74%	
